Data on nine compounds can be found in patent US8288549B2, “Glycine B antagonist” (Merz Pharma GmbH & Co. KGaA, priority 2008, dated 2012).

The target in series [1] is T1, NMDA receptor glycine B site (Rattus norvegicus, UniProt P35439).
T1 construct: Hippocampi are then isolated from the brains of at least 8 embryos after decapitation; endogenous in cells; host or cells: primary cultured hippocampal neurons from E20 Sprague-Dawley rat embryos, 11-15 DIV
The series is described as follows: Whole cell patch-clamp recordings in cultured rat hippocampal neurons (NMDA/D-Serine evoked currents). The following applies: NMDA (200 μM) and D-Serine (1 μM), holding potential −70 mV, read-out: NMDA-PC-r-HIC-NAM - IC50. The class given is cell-based. The procedure:
Antagonistic potencies of the test compounds are functionally evaluated using electrophysiological whole cell patch-clamp recordings and/or fluorometric intracellular Ca^2+-imaging (FLIPR) screens.
Cell preparation is performed as described by Parsons, et al. (Neuropharmacology, 1998, 37(6), 719-727). The female Sprague-Dawley rat is anaesthetised by placing in a saturated CO2-euthanasia chamber under further quiet CO2-influx. Under these conditions the rat loses consciousness after a few seconds and is then sacrificed by cervical dislocation. After opening the abdominal cavity, embryos (E20) are removed and stored in ice cold Ca^2+- and Mg^2+-free Hank's Buffered Salt Solution (pH 7.3), containing 4 g/l glucose (HBSS-CMF). Hippocampi are then isolated from the brains of at least 8 embryos after decapitation, transferred into ice cold HBSS-CMF and washed 3 to 4 times.
Hippocampi are pre-incubated for 8 min with a 0.66% trypsin (Sigma-Aldrich) and 0.1% (20 U/ml) DNAase solution (Sigma-Aldrich) in Ca^2+-free Phosphate Buffered Saline (PBS-CF) and washed 3 times with HBSS-CMF. Cells are then mechanically dissociated by trituration in a PBS-CF solution containing 0.05% (10 U/ml) DNAase and 0.3% of the trypsin inhibitor ovomucoid (all from Sigma-Aldrich). The cells are then centrifuged at 180×g for 10 minutes, and the cell pellet re-suspended in basal Minimum essential medium (MEM, Invitrogen, Karlsruhe, Germany), again carefully triturated to ensure maximal dissociation and finally plated in the flexiPERM inserts (Thermo Fisher Scientific, Langenselbold, Germany) at a density of 15×10^3 cells/cm^2 (0.5 ml/insert) onto poly-DL-ornithine (Sigma) and mouse laminin (Invitrogen) pre-coated plastic petri dishes. After 1 hour the cells become attached to the bottom of the dish and the inserts may be removed. The cells are then nourished with 2 ml MEM supplemented with 5% foetal calf serum (FCS) and 5% horse serum and incubated at 37° C. with 95% air and 5% CO2 at 95% humidity. After 4 days in vitro (DIV) further glial mitosis is inhibited by adding 10 μl of AraC (5 μM endconcentration). The medium is completely exchanged after an additional 2 DIV and again, but only partly (50%), after 8 DIV. The cells are used for electrophysiological recordings after 11-15 DIV.
Cells are visualised using an inverted microscope and selected for patching based upon their position and morphology. Voltage clamp recordings are made in the whole cell configuration of the patch clamp technique at a holding potential of −70 mV with the aid of an EPC-10 amplifier in combination with pipette manipulator. Patch clamp pipettes are pulled from borosilicate glass using a horizontal puller (P-97 Puller, Sutter Instruments, USA) and, when filled with intracellular solution, have resistances of 1-4 MΩ.
Solutions are delivered via a home-made gravity driven very fast perfusion system (<10 ms) including valves to switch flow on and off in combination with a stepper motor-driven double-barreled theta glass application pipette in order to expose cells to either agonist-free or agonist-containing solutions in presence or absence of antagonist.
The intracellular solution used consists of: 120 mM CsCl, 10 mM EGTA, 1 mM MgCl2, 200 μM CaCl2, 10 mM glucose and 22 mM tetraethyl ammonium chloride (TEA-CL). The corresponding extracellular bath solution contains: 140 mM NaCl, 3 mM KCl, 10 mM glucose, 10 mM HEPES, 1.5 mM CaCl2 and 4.5 mM sucrose (all from Sigma-Aldrich) pH 7.3, and is supplemented with 0.3 μM tetrodotoxin (TTX, Tocris, Bristol, U.K.) to block voltage-activated sodium channels and 0.25 μM bicuculline (Sigma-Aldrich) to block GABAA receptors. […]
(In patch-clamp work, channel activity is measured electrically.)

Molecules are shown by their SMILES. Bounds are passed on as bounds.

Regarding `N.N.O=C(O)c1cc2cc(Cl)ccc2nc1NC(Cc1ccccc1F)C(=O)O` (stereo not drawn) [Example 40, 2-[1-Carboxy-2-(2-fluoro-phenyl)-ethylamino]-6-chloro-quinoline-3-carboxylic acid ammonium salt], the melting point is 144 to 148 °C (dec.). The half-maximal inhibitory concentration (IC50) in series [1] stood at 754 nM.
As to `O=C(O)c1cc2cc(Br)ccc2nc1N[C@H](Cc1ccccc1)C(=O)O` [Example 47, 6-Bromo-2-((R)-1-carboxy-2-phenyl-ethylamino)-quinoline-3-carboxylic acid], the melting point is 140 to 141 °C. In series [1], the IC50 was 468 nM.
On to `Nc1cc(C[C@H](Nc2nc3ccc(Cl)cc3cc2C(=O)O)C(=O)O)ccc1Oc1nc2ccc(Cl)cc2cc1C(=O)O` [Example 48, 2-{(S)-2-[3-Amino-4-(3-carboxy-6-chloro-quinolin-2-yloxy)-phenyl]-1-carboxy-ethylamino}-6-chloro-quinoline-3-carboxylic acid], for which the melting point was over 250 °C. For the same compound, the IC50 in series [1] amounted to 680 nM.
As to `O=C(O)c1cc2cc(Cl)ccc2nc1Nc1ccc(CC(Nc2nc3ccc(Cl)cc3cc2C(=O)O)C(=O)O)cc1` (stereo not drawn) [Example 59, 2-{1-Carboxy-2-[4-(3-carboxy-6-chloro-quinolin-2-ylamino)-phenyl]-ethylamino}-6-chloro-quinoline-3-carboxylic acid], the melting point was > 250 °C (dec.). In series [1], the half-inhibitory concentration (IC50) amounted to 640 nM.
For `O=C(O)c1cc2cc(Cl)ccc2nc1NC(C(=O)O)C(C(=O)O)c1ccccc1` (stereo not drawn) [Example 79, 2-(3-Carboxy-6-chloro-quinolin-2-ylamino)-3-phenyl-succinic acid], in that order: 165 to 170 °C (dec.) and 250 nM.
`O=C(O)c1cc2cc(Cl)ccc2nc1N[C@@H](Cc1ccc(Oc2ccc(Br)cn2)cc1)C(=O)O` [Example 101, 2-{(S)-2-[4-(5-Bromo-pyridin-2-yloxy)-phenyl]-1-carboxy-ethylamino}-6-chloro-quinoline-3-carboxylic acid] returned a melting point of 145 to 150 °C. Moreover, the IC50 in series [1] worked out at 420 nM.
As for `O=C(O)c1cc2cc(Cl)ccc2nc1N[C@@H](Cc1ccc(Oc2ccc3c(-c4ccccc4)nccc3n2)cc1)C(=O)O` [Example 130, 2-{(S)-1-Carboxy-2-[4-(5-phenyl-[1,6]naphthyridin-2-yloxy)-phenyl]-ethylamino}-6-chloro-quinoline-3-carboxylic acid], in series [1], the half-inhibitory concentration (IC50) was 190 nM.
Regarding `O=C(O)c1cc2cc(Cl)ccc2nc1N[C@@H](Cc1ccc(Oc2ccc(I)cn2)cc1)C(=O)O` [Example 131, 2-{1-Carboxy-2-[4-(5-iodo-pyridin-2-yloxy)-phenyl]-ethylamino}-6-chloro-quinoline-3-carboxylic acid], in series [1], the concentration for half-maximal inhibition (IC50) is 170 nM.
Turning to `O=C(O)c1cc2cc(Cl)ccc2nc1NC(Cc1ccccn1)C(=O)O` (stereo not drawn) [Example 149, 2-(1-Carboxy-2-pyridin-2-yl-ethylamino)-6-chloro-quinoline-3-carboxylic acid], the 50% inhibitory concentration (IC50) in series [1] came out at 170 nM.

A word on the IC50: it is the concentration at which inhibition is half-maximal. The term melting point denotes the temperature of the solid-liquid transition.
